From patent publication US5449750A, “Prolyl endopeptidase inhibitors SNA-115 and SNA-115T, and process for the production and productive strain thereof” (Snow Brand Milk Products Co., Ltd., priority 1991, dated 1995)
“And” between values parts separate entries of the source, which are not always exact repeats. Identical values can stand only once. Like-named read-outs stand apart in the source and are kept apart here. Where a SMILES comes first, the peptide text is derived from it. Bridges are numbered along the chain shown (N, C = ends). Roman numbers before positions name the chains, in order.

Tests used:
[1] = system: Salmonella typhimurium SL 1102; test: Antimicrobial activity, paper disc method; format: cell-based; settings: 40 μg per disc
Protocol: (§1) The antimicrobial activity of SNA-115 was determined in 24 bacteria, fungi, and yeasts by paper disc method. SNA-115 was placed on paper discs at an amount of 40 μg each and the disc was placed on the test plates. The test plates were cultured under optimal conditions of the test microorganisms.
The antimicrobial activity of SNA-115T compound was determined in 9 bacteria and fungi by paper disc method in an agar plate. SNA-115T was placed on paper discs at an amount of 40 μg each and the disc was placed on the test plates. The test plates were cultured under optimal conditions of the rest microorganisms. The inhibition zones of SNA-115 were also shown for the comparison.

[2] = molecular target: prolyl endopeptidase derived from Flavobacterium (Elizabethkingia meningoseptica, UniProt P27028); test: Prolyl endopeptidase inhibitory activity (Z-Gly-Pro-pNA substrate, p-nitroaniline at 410 nm); format: biochemical; settings: for IC50: 50% inhibitory concentration (IC50), 0.2 mM Z-Gly-Pro-pNA as substrate, sample in methanol, 30° C., pH 7.0; for inhibitory pattern / Ki: Dixon plot; for Ki: inhibitor constant Ki, various concentrations of substrate and inhibitor
[3] = system: Pyricularia oryzae IFO 5994; format: cell-based
Bacillus subtilis rec^- = test: Antimicrobial activity, paper disc method; format: cell-based; settings: 40 μg per disc
[4] = system: Xanthomonas citri IFO 3781; test: Antimicrobial activity, paper disc method; format: cell-based; settings: 40 μg per disc
[5] = system: Pseudomonas aeruginosa N-10 (L-form); test: Antimicrobial activity, paper disc method; format: cell-based; settings: 40 μg per disc
[6] = system: Botrytis cinerea IFO 5365; test: Antimicrobial activity, paper disc method; format: cell-based; settings: 40 μg per disc
Bacillus subtilis rec^+ = test: Antimicrobial activity, paper disc method; format: cell-based; settings: 40 μg per disc
[7] = Acute toxicity (intravenous injection)
[8] = system: Xanthomonas oryzae IFO 3312; format: cell-based
[9] = system: Mycobacterium phlei IFO 3158; test: Antimicrobial activity, paper disc method; format: cell-based; settings: 40 μg per disc
[10] = system: Pseudomonas aeruginosa IFO 13130; test: Antimicrobial activity, paper disc method; format: cell-based; settings: 40 μg per disc
Protocol: as §1

Escherichia coli AB 1157 = test: Antimicrobial activity, paper disc method; format: cell-based; settings: 40 μg per disc
Protocol: as §1

[11] = system: Candida albicans IFO 1594; test: Antimicrobial activity, paper disc method; format: cell-based; settings: 40 μg per disc
Protocol: as §1

Chlorella vulgaris = test: Antimicrobial activity, paper disc method; format: cell-based; settings: 40 μg per disc
Protocol: as §1

Alternaria mali IFO 8984 = test: Antimicrobial activity, paper disc method; format: cell-based; settings: 40 μg per disc
Protocol: as §1

Escherichia coli BE 1186 = test: Antimicrobial activity, paper disc method; format: cell-based; settings: 40 μg per disc
Protocol: as §1

[12] = system: Salmonella typhimurium TV 119; test: Antimicrobial activity, paper disc method; format: cell-based; settings: 40 μg per disc
Protocol: as §1

[13] = system: Staphylococcus aureus multi resistant; test: Antimicrobial activity, paper disc method; format: cell-based; settings: 40 μg per disc
Protocol: as §1

[14] = system: Staphylococcus aureus IFO 12732; test: Antimicrobial activity, paper disc method; format: cell-based; settings: 40 μg per disc
Protocol: as §1

[15] = system: Micrococcus luteus IFO 12708; test: Antimicrobial activity, paper disc method; format: cell-based; settings: 40 μg per disc
Protocol: as §1

[16] = system: Schizosaccharomyces Pombe IFO 0638; test: Antimicrobial activity, paper disc method; format: cell-based; settings: 40 μg per disc
Protocol: as §1

[17] = system: Colletotrichum lagenarium IFO 7513; test: Antimicrobial activity, paper disc method; format: cell-based; settings: 40 μg per disc
Protocol: as §1

[18] = system: Fusarium oxysporum IFO 9761; test: Antimicrobial activity, paper disc method; format: cell-based; settings: 40 μg per disc
Protocol: as §1

[19] = system: Escherichia coli multi resistant; test: Antimicrobial activity, paper disc method; format: cell-based; settings: 40 μg per disc
Protocol: as §1

[20] = system: Trichophyton rubrum IFO 6203; test: Antimicrobial activity, paper disc method; format: cell-based; settings: 40 μg per disc
Protocol: as §1

[21] = system: Human epidermoid carcinoma (oral) KB cells; test: Cytotoxicity, cell proliferation (MTT); format: cell-based; settings: 72 hrs culture
Protocol: (§2) Human epidermoid carcinoma (oral) KB cells and mouse leukemia L1210 cells each were placed in a 96 wells microplate (2,000 cells/100 μl/well). The former cells were cultured in DMEM medium and the latter cells were cultured in RPMI 1640 medium, each containing 5% FCS. They were cultured in the presence of 5% CO2 at 37° C. for 24 hrs. Five μl each of a serial concentration of SNA-115 in methanol were added to the wells and cultured for 72 hrs. and cultured further 4 hrs. after the addition of 10 μl of 2.5 mg/ml MTT solution to produce formazan. The cultured mixture was centrifuged at 2,000 rpm for 2 min., the supernatant was removed, 100 μl of DMSO was added to the residue and the absorption at 540 nm was determined by an immunoreader. The cell proliferation inhibitory activity of samples was obtained from comparison of their ratios to that of control group.

[22] = system: mouse leukemia L1210 cells; test: Cytotoxicity, cell proliferation (MTT); format: cell-based; settings: 72 hrs culture
Protocol: as §2

Solubility in solvents = settings: organic solvents and water, qualitative
[23] = ( ) indicates partial inhibition

prolyl endopeptidase derived from Flavobacterium, sequence (P27028 21-705): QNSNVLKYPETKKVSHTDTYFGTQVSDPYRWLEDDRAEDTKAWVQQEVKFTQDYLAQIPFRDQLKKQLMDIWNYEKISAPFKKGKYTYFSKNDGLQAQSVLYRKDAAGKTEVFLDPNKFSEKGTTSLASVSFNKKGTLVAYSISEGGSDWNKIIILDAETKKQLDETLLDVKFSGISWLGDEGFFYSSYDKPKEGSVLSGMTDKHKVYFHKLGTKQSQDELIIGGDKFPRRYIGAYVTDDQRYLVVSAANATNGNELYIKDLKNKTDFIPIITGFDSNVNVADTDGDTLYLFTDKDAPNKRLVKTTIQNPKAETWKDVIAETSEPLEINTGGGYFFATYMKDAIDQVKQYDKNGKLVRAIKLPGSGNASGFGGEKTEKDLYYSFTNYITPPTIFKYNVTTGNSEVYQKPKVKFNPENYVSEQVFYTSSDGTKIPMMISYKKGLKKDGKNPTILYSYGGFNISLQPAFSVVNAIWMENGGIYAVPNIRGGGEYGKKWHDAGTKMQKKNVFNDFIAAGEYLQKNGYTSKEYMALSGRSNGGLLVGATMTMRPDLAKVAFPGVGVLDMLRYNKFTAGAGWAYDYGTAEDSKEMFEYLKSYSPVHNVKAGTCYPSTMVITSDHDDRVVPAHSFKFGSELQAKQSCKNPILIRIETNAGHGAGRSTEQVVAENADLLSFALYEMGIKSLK

CC[C@H](C)[C@H](NC(=O)[C@H](Cc1ccccc1)NC(=O)[C@@H](NC(=O)[C@H](Cc1c[nH]cn1)NC(=O)CNC(=O)CNC(=O)[C@H](Cc1ccccc1)NC(=O)[C@H](CC(C)C)NC(=O)[C@@H](N)CC(=O)NCC(=O)N[C@@H](Cc1ccc(O)cc1)C(=O)N1CCC[C@H]1C(=O)N[C@@H](Cc1c[nH]c2ccccc12)C(=O)N[C@@H](Cc1c[nH]c2ccccc12)C(=O)N[C@@H](CC(=O)O)C(=O)N[C@@H](Cc1ccc(O)cc1)C(=O)N[C@@H](CCCNC(=N)N)C(=O)O)[C@@H](C)O)C(=O)N[C@@H](CO)C(=O)N1CCC[C@H]1C(=O)O [SNA-115T] (I: H-DLFGGHTFISP-OH / II: GYPWWDYR-OH; amide I:1-II:N)
Inhibition zone [1]: 0 mm | IC50 [2]: 1300 nM | inhibitory pattern [2]: competitive inhibition | Ki [2]: 475 nM and 480 nM | Inhibition zone ([3]; paper disc, 40 μg per disc): 0 mm | Inhibition zone (Bacillus subtilis rec^-): 0 mm | Inhibition zone [4]: 0 mm | Inhibition zone [5]: 0 mm | Inhibition zone [6]: 0 mm | Inhibition zone (Bacillus subtilis rec^+): 0 mm | acute toxicity [7]: ≥ 10 mg/kg | Inhibition zone ([8]; paper disc, 40 μg per disc): 0 mm | Inhibition zone [9]: 0 mm

CC[C@H](C)[C@H](NC(=O)[C@H](Cc1ccccc1)NC(=O)[C@@H](NC(=O)[C@H](Cc1c[nH]cn1)NC(=O)CNC(=O)CNC(=O)[C@H](Cc1ccccc1)NC(=O)[C@H](CC(C)C)NC(=O)[C@@H]1CC(=O)NCC(=O)N[C@@H](Cc2ccc(O)cc2)C(=O)N2CCC[C@H]2C(=O)N[C@@H](Cc2c[nH]c3ccccc23)C(=O)N[C@@H](Cc2c[nH]c3ccccc23)C(=O)N[C@@H](CC(=O)O)C(=O)N[C@@H](Cc2ccc(O)cc2)C(=O)N[C@@H](CCCNC(=N)N)C(=O)N1)[C@@H](C)O)C(=O)N[C@@H](CO)C(=O)N1CCC[C@H]1C(=O)O [SNA-115] (GYPWWDYRDLFGGHTFISP-OH; lactam N-9)
Inhibition zone [1]: 0 mm | inhibitory pattern [2]: competitive inhibition | Inhibition zone [3]: 0 mm | Inhibition zone (Bacillus subtilis rec^-): 0 mm | Inhibition zone, partial inhibition (value in parentheses) (Bacillus subtilis rec^-; [23]): 15.2 mm | Inhibition zone [4]: 0 mm | Inhibition zone [10]: 0 mm | Inhibition zone (Escherichia coli AB 1157): 0 mm | Inhibition zone [11]: 0 mm | Inhibition zone (Chlorella vulgaris): 0 mm | Inhibition zone (Alternaria mali IFO 8984): 0 mm | Inhibition zone (Escherichia coli BE 1186): 0 mm | Inhibition zone [12]: 0 mm | Inhibition zone [13]: 0 mm | Inhibition zone [14]: 0 mm | Inhibition zone [15]: 0 mm | Inhibition zone [16]: 0 mm | Inhibition zone [17]: 0 mm | Inhibition zone [18]: 0 mm | Inhibition zone [19]: 0 mm | Inhibition zone [20]: 0 mm | IC50 against cell proliferation [21]: > 1,000 μg/ml | IC50 against cell proliferation [22]: > 1,000 μg/ml | Inhibition zone [5]: 10.6 mm and 16.8 mm | Inhibition zone, partial inhibition (value in parentheses) [5, 23]: 15.2 mm | Inhibition zone [6]: 0 mm | Inhibition zone (Bacillus subtilis rec^+): 0 mm | Inhibition zone [8]: 11.5 mm | Inhibition zone (class symbol) [8]: + (key: + indicates inhibitory zone diameter of 10 mm or less) | Inhibition zone [9]: 14.5 mm and 13.8 mm

CC[C@H](C)[C@H](NC(=O)[C@H](Cc1ccccc1)NC(=O)[C@@H](NC(=O)[C@H](Cc1cnc[nH]1)NC(=O)CNC(=O)CNC(=O)[C@H](Cc1ccccc1)NC(=O)[C@H](CC(C)C)NC(=O)[C@@H]1CC(=O)NCC(=O)N[C@@H](Cc2ccc(O)cc2)C(=O)N2CCC[C@H]2C(=O)N[C@@H](Cc2c[nH]c3ccccc23)C(=O)N[C@@H](Cc2c[nH]c3ccccc23)C(=O)N[C@@H](CC(=O)O)C(=O)N[C@@H](Cc2ccc(O)cc2)C(=O)N[C@@H](CCCNC(=N)N)C(=O)N1)[C@@H](C)O)C(=O)N[C@@H](CO)C(=O)N1CCC[C@H]1C(=O)O [SNA-115] (GYPWWDYRDLFGGHTFISP-OH; lactam N-9)
IC50 [2]: 1130 nM and 1100 nM | Ki [2]: 697 nM and 700 nM | acute toxicity [7]: ≥ 10 mg/kg | Solubility (Solubility in solvents): Soluble in methanol, dimethylsulfoxide, butanol and ethanol, and insoluble in acetonitrile, chloroform, acetone and water
